Assay results taken from patent US20250230193A1, “CYCLIC COMPOUND HAVING SELECTIVE KRAS INHIBITORY EFFECT ON HRAS AND NRAS” (CHUGAI SEIYAKU KABUSHIKI KAISHA, priority 2022, published 2025).
Where two headings read alike, the source gives them in different places. *1 amine or outer side, *2 acyl side, *3 side chain or, on linkers, in order; H or OH if unused. Where a SMILES comes first, the peptide text is derived from it. Bridges are numbered along the chain shown (N, C = ends). [ ]: non-standard residue; d: D form. The star is where a group is joined. X6 = CC(C)(C)CCN([C@@H](Cc1ccc(C(F)(F)F)cc1)C(=O)[*:2])[*:1]; dhPhe(3-Cl,4-CF3) = N[C@H](CCc1ccc(C(F)(F)F)c(Cl)c1)C(=O)O; hPhe(3-Cl-4-CF3) = N[C@@H](CCc1ccc(C(F)(F)F)c(Cl)c1)C(=O)O; X3 = C=CCN([C@H](Cc1ccccc1)C(=O)[*:2])[*:1]; X5 = CCCN([C@H](C(=O)[*:2])C1CCCC1)[*:1]; NMeGly(cPent) = CN[C@H](C(=O)O)C1CCCC1; NMeNle(5-ene) = C=CCC[C@H](NC)C(=O)O; NMeD = CN[C@@H](CC(=O)O)C(=O)O; NMeL = CN[C@@H](CC(C)C)C(=O)O; Morpholide = C1CN(*)CCO1; NMeA = CN[C@@H](C)C(=O)O; Ac5c = NC1(C(=O)O)CCCC1; Aze = O=C(O)[C@@H]1CCN1; Sar = CNCC(=O)O

How the values were obtained:
[1] = target: GDP-bound HRAS wild-type protein (Homo sapiens, UniProt P01112); experiment: Binding to HRAS by surface plasmon resonance (SPR), Single Cycle Kinetics; details: SPR; for HRAS/KRAS (ratio of KD value for GDP-bound HRAS wild-type protein to KD value for KRAS): KD ratio class
Chain of GDP-bound HRAS wild-type protein (P01112 whole entry): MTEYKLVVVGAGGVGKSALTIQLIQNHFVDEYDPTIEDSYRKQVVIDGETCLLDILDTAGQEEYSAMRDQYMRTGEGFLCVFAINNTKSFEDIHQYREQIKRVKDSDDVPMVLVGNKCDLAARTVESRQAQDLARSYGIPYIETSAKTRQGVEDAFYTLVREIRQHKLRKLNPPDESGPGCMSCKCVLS

[2] = target: GDP-bound NRAS wild-type protein (Homo sapiens, UniProt P01111); experiment: Binding to NRAS by surface plasmon resonance (SPR), Single Cycle Kinetics; details: SPR; for NRAS/KRAS (ratio of KD value for GDP-bound NRAS wild-type protein to KD value for KRAS): KD ratio class
Chain of GDP-bound NRAS wild-type protein (P01111 whole entry): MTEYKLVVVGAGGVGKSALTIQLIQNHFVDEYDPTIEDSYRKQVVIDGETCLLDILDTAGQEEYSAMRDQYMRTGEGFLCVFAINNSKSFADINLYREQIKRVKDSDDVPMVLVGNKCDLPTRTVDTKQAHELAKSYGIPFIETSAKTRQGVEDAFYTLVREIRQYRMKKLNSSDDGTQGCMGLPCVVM

[3] = system: human lung cancer strain NCI-H441
[4] = system: human lung cancer strain NCI-H441; experiment: cells; details: NCI-H441, 96 h, read-out: NCI-H441 IC50 (nM)
[5] = read-out: NCI-H441 IC50, NCI-H441 cells, 4 days, CellTiter-Glo
[6] = KD ratio, GDP-bound HRAS wild-type vs GDP-bound KRAS wild-type
[7] = KD ratio, GDP-bound NRAS wild-type vs GDP-bound KRAS wild-type

IC50 [3] [nM]	IC50 [4] [nM]	SMILES	HRAS/KRAS (ratio of KD value for GDP-bound HRAS wild-type protein to KD value for KRAS) [1]	NRAS/KRAS (ratio of KD value for GDP-bound NRAS wild-type protein to KD value for KRAS) [2]	other results
	78.6	CCO[C@@H]1C[C@H]2C(=O)NC3(CCC3)C(=O)N(C)[C@@H](C3CCCC3)C(=O)N(C)[C@H](C(C)C)CC(=O)N(C)[C@@H](CC)C(=O)N[C@@H]([C@@H](C)CC)C(=O)N(C)CC(=O)N(C)[C@H]3C/C=C\CCN(C3=O)[C@@H](CC3CCCCC3)C(=O)N(C)CC(=O)N[C@@H](CCc3cc(F)c(C(F)(F)F)c(F)c3)C(=O)N2C1 [PP1601]	A (a compound having 10 or more and less than 20 is denoted as A)	B (a compound having 3 or more and less than 10 is denoted as B)	
	132	CCO[C@@H]1C[C@H]2C(=O)NC3(CC(C)(C)C3)C(=O)N(C)[C@@H](C3CCCC3)C(=O)N(C)[C@H](C(C)C)CC(=O)N(C)[C@@H](CC)C(=O)N[C@@H]([C@@H](C)CC)C(=O)N(C)CC(=O)N(C)[C@H]3C/C=C\CCN(C3=O)[C@@H](CC3CCCCC3)C(=O)N(C)CC(=O)N[C@@H](CCc3cc(F)c(C(F)(F)F)c(F)c3)C(=O)N2C1 [PP1603]	B (a compound having 3 or more and less than 10 is denoted as B)	B (a compound having 3 or more and less than 10 is denoted as B)	
	31.6	CCO[C@@H]1C[C@H]2C(=O)NC3(CC(C)(C)C3)C(=O)N(C)[C@@H](C(CC)CC)C(=O)N3CCC[C@@H]3CC(=O)N(C)[C@@H](CC)C(=O)N[C@@H]([C@@H](C)CC)C(=O)N(C)CC(=O)N(C)[C@H]3C/C=C\CCN(C3=O)[C@@H](Cc3ccc(C(F)(F)F)cc3)C(=O)N(C)CC(=O)N[C@@H](CCc3cc(F)c(C(F)(F)F)c(F)c3)C(=O)N2C1 [PP1605]	A (a compound having 10 or more and less than 20 is denoted as A)	A (a compound having 10 or more and less than 20 is denoted as A)	
	12.6	CCO[C@@H]1C[C@H]2C(=O)NC3(CC(C)(C)C3)C(=O)N(C)[C@@H](C3CCCC3)C(=O)N3CCC[C@@H]3CC(=O)N(C)[C@@H](CC)C(=O)N[C@@H]([C@@H](C)CC)C(=O)N(C)CC(=O)N(C)[C@H]3C/C=C\CCN(C3=O)[C@@H](Cc3ccc(C(F)(F)F)cc3)C(=O)N(C)CC(=O)N[C@@H](CCc3cc(F)c(C(F)(F)F)c(F)c3)C(=O)N2C1 [PP1606]	B (a compound having 3 or more and less than 10 is denoted as B)	B (a compound having 3 or more and less than 10 is denoted as B)	
4.3		CC[C@H](C)[C@@H]1NC(=O)[C@H](CC2CC2)N(C)C(=O)C[C@@H](C(=O)N(C)C)N(C)C(=O)[C@H](C2CCCC2)N(C)C(=O)C2(CC(C)(C)C2)NC(=O)[C@@H]2C[C@H](C)CN2C(=O)[C@H](CCc2cc(F)c(C(F)(F)F)c(F)c2)NC(=O)CN(C)C(=O)[C@H](Cc2ccc(C(F)(F)F)cc2)N2CC/C=C\C[C@@H](C2=O)N(C)C(=O)CN(C)C1=O [PP1660]			HRAS/KRAS (ratio of KD value for HRAS to KD value for KRAS) [1, 6]: A (a compound having 10 or more and less than 20 is denoted as A); NRAS/KRAS (ratio of KD value for NRAS to KD value for KRAS) [2, 7]: A (a compound having 10 or more and less than 20 is denoted as A)

The remaining lines, values behind:

SMILES	IC50 [3] [nM]	IC50 [4] [nM]	HRAS/KRAS (ratio of KD value for GDP-bound HRAS wild-type protein to KD value for KRAS) [1]	NRAS/KRAS (ratio of KD value for GDP-bound NRAS wild-type protein to KD value for KRAS) [2]	other results
CCCN1C(=O)[C@@H]2CCN2C(=O)[C@H](C)N(C)C(=O)[C@H]([C@@H](C)CC)NC(=O)[C@H](CC(C)C)N(C)C(=O)C[C@@H](C(=O)N2CCOCC2)N(C)C(=O)[C@H](C2CCCC2)N(C)C(=O)C2(CCCC2)NC(=O)[C@@H]2CCCN2C(=O)[C@H](CCc2ccc(C(F)(F)F)c(Cl)c2)NC(=O)CN(C)C(=O)[C@@H]1C1CCCC1 [PP0054] ([NMeL]I[NMeA][Aze][X5][Sar][hPhe(3-Cl-4-CF3)]P[Ac5c][NMeGly(cPent)][NMeD]-Morpholide; lactam N-11)					HRAS/KRAS (ratio of KD for GDP-bound HRAS wild-type to KD for KRAS) [1]: C (A compound having a KD ratio of 0.1 or more and less than 3 is denoted as C); NRAS/KRAS (ratio of KD for GDP-bound NRAS wild-type to KD for KRAS) [2]: C (A compound having a KD ratio of 0.1 or more and less than 3 is denoted as C); IC50 [3, 5]: 82 nM
CC[C@H](C)[C@@H]1NC(=O)[C@H](CC(C)C)N(C)C(=O)C[C@@H](C(=O)N2CCOCC2)N(C)C(=O)[C@H](C2CCCC2)N(C)C(=O)C2(CCCC2)NC(=O)[C@@H]2CCCN2C(=O)[C@H](CCc2ccc(C(F)(F)F)c(Cl)c2)NC(=O)CN(C)C(=O)[C@H](Cc2ccc(C(F)(F)F)cc2)N(CCC(C)(C)C)C(=O)CN(C)C(=O)CN(C)C1=O [PP0127] ([NMeL]I[Sar][Sar][X6][Sar][hPhe(3-Cl-4-CF3)]P[Ac5c][NMeGly(cPent)][NMeD]-Morpholide; lactam N-11)	25.3				HRAS/KRAS (ratio of KD for GDP-bound HRAS wild-type to KD for KRAS) [1]: C (A compound having a KD ratio of 0.1 or more and less than 3 is denoted as C); NRAS/KRAS (ratio of KD for GDP-bound NRAS wild-type to KD for KRAS) [2]: C (A compound having a KD ratio of 0.1 or more and less than 3 is denoted as C)
C=CCC[C@H]1C(=O)N(CC=C)[C@H](Cc2ccccc2)C(=O)N(C)CC(=O)N[C@H](CCc2ccc(C(F)(F)F)c(Cl)c2)C(=O)N2CCC[C@H]2C(=O)NC2(CCCC2)C(=O)N(C)[C@@H](C2CCCC2)C(=O)N(C)[C@H](C(=O)N2CCOCC2)CC(=O)N(C)[C@@H](CC(C)C)C(=O)N[C@@H]([C@@H](C)CC)C(=O)N(C)CC(=O)N1C [PP0599] ([NMeL]I[Sar][NMeNle(5-ene)][X3][Sar][dhPhe(3-Cl,4-CF3)]P[Ac5c][NMeGly(cPent)][NMeD]-Morpholide; lactam N-11)	2800				HRAS/KRAS (ratio of KD value with respect to GDP-bound HRAS wild-type protein to KD value with respect to KRAS) [1]: B (a compound having 3 or more and less than 10 is denoted as B); NRAS/KRAS (ratio of KD value with respect to GDP-bound NRAS wild-type protein to KD value with respect to KRAS) [2]: C (A compound having a KD ratio of 0.1 or more and less than 3 is denoted as C)
CC[C@H](C)C1NC(=O)[C@H](CC(C)C)N(C)C(=O)C[C@@H](C(=O)N(C)C)N(C)C(=O)[C@H](C2CCCC2)N(C)C(=O)C2(CCCC2)NC(=O)C2CCCN2C(=O)[C@@H](CCc2ccc(C(F)(F)F)c(Cl)c2)NC(=O)CN(C)C(=O)[C@@H](Cc2ccc(C)cc2)N2CC/C=C\CCN(CC2=O)C(=O)CN(C)C1=O (some centres unmarked) [PP0618]	79.1				HRAS/KRAS (ratio of KD value with respect to GDP-bound HRAS wild-type protein to KD value with respect to KRAS) [1]: C (A compound having a KD ratio of 0.1 or more and less than 3 is denoted as C); NRAS/KRAS (ratio of KD value with respect to GDP-bound NRAS wild-type protein to KD value with respect to KRAS) [2]: C (A compound having a KD ratio of 0.1 or more and less than 3 is denoted as C)
CC[C@H](C)[C@@H]1NC(=O)[C@H](CC(C)C)N(C)C(=O)C[C@@H](C(=O)N(C)C)N(C)C(=O)[C@H](C2CCCC2)N(C)C(=O)C2(CCCC2)NC(=O)C2CCCN2C(=O)[C@H](CCc2ccc(C(F)(F)F)c(Cl)c2)NC(=O)CN(C)C(=O)[C@H](Cc2ccc(C(F)(F)F)cc2)N2CC/C=C\COC[C@@H](C2=O)N(C)C(=O)CN(C)C1=O (some centres unmarked) [PP0622]	330				HRAS/KRAS (ratio of KD value with respect to GDP-bound HRAS wild-type protein to KD value with respect to KRAS) [1]: B (a compound having 3 or more and less than 10 is denoted as B); NRAS/KRAS (ratio of KD value with respect to GDP-bound NRAS wild-type protein to KD value with respect to KRAS) [2]: B (a compound having 3 or more and less than 10 is denoted as B)
CC[C@H](C)[C@@H]1NC(=O)[C@H](CC(C)C)N(C)C(=O)C[C@@H](C(=O)N(C)C)N(C)C(=O)[C@H](C2CCCC2)N(C)C(=O)C2(CCCC2)NC(=O)[C@@H]2CCCN2C(=O)[C@H](CCc2ccc(C(F)(F)F)c(Cl)c2)NC(=O)CN(C)C(=O)[C@H](Cc2ccc(C)cc2)N2C/C=C\COC[C@@H](C2=O)N(C)C(=O)CN(C)C1=O [PP0627]	98.3				
CC[C@H](C)[C@@H]1NC(=O)[C@H](CC(C)C)N(C)C(=O)C[C@@H](C)N(C)C(=O)[C@H](C2CCCC2)N(C)C(=O)C2(CCC2)NC(=O)[C@@H]2CCCN2C(=O)[C@H](CCc2cc(F)c(C(F)(F)F)c(F)c2)NC(=O)CN(C)C(=O)[C@H](Cc2ccc(C(F)(F)F)cc2)N2CC/C=C\C[C@@H](C2=O)N(C)C(=O)CN(C)C1=O [PP1099]	68.1				HRAS/KRAS (ratio of KD value with respect to HRAS to KD value with respect to KRAS) [1, 6]: A (a compound having 10 or more and less than 20 is denoted as A); NRAS/KRAS (ratio of KD value with respect to NRAS to KD value with respect to KRAS) [2, 7]: B (a compound having 3 or more and less than 10 is denoted as B)
CC[C@H](C)[C@@H]1NC(=O)[C@H](CC2CCCC2)N(C)C(=O)C[C@@H](C(=O)N(C)C)N(C)C(=O)[C@H](C2CCCC2)N(C)C(=O)C2(CCC2)NC(=O)[C@@H]2[C@@H](OCC(F)F)CCN2C(=O)[C@H](CCc2cc(F)c(C(F)(F)F)c(F)c2)NC(=O)CN(C)C(=O)[C@H](Cc2ccc(C)cc2)N2CC/C=C\C[C@H](C2=O)N(C)C(=O)CN(C)C1=O [PP1536]	24.8		B (a compound having 3 or more and less than 10 is denoted as B)	A (a compound having 10 or more and less than 20 is denoted as A)	
CCO[C@@H]1C[C@H]2C(=O)NC3(CC(C)(C)C3)C(=O)N(C)[C@@H](C3CCCC3)C(=O)N(C)[C@@H](C(C)C)CC(=O)N(C)[C@@H](CC3CC3)C(=O)N[C@@H]([C@@H](C)CC)C(=O)N(C)CC(=O)N(C)[C@H]3C/C=C\CCN(C3=O)[C@@H](Cc3ccc(C(F)(F)F)cc3)C(=O)N(C)CC(=O)N[C@@H](CCc3cc(F)c(C(F)(F)F)c(F)c3)C(=O)N2C1 [PP1594]		48.8	A (a compound having 10 or more and less than 20 is denoted as A)	A (a compound having 10 or more and less than 20 is denoted as A)	
CCO[C@@H]1C[C@H]2C(=O)NC3(CCC3)C(=O)N(C)[C@@H](C3CCCC3)C(=O)N(C)[C@@H](C(C)C)CC(=O)N(C)[C@@H](CC3CC3)C(=O)N[C@@H]([C@@H](C)CC)C(=O)N(C)CC(=O)N(C)[C@H]3C/C=C\CCN(C3=O)[C@@H](Cc3ccc(C(F)(F)F)cc3)C(=O)N(C)CC(=O)N[C@@H](CCc3cc(F)c(C(F)(F)F)c(F)c3)C(=O)N2C1 [PP1596]					IC50 [3, 5]: 18.1 nM
